These results are taken from PMC11876601 (Molecular Systems Biology, 2025).

One test deals with PIK3C3 ; Q8NEB9 (Homo sapiens, UniProt Q8NEB9). Put plainly: biochemical. Details: species or system AsPC-1; Kinobeads competition pulldown in AsPC-1 lysate with LC-MS/MS label-free quantification; apparent Kd. How it is done: (§1) This was followed by incubation with Kinobeads ε (17.5 µl of settled beads) for 30 min at 4 °C to enrich kinases. […] Enriched proteins were reduced with 50 mM DTT in 8 M urea, 40 mM Tris-HCl, pH 7.4 for 30 min at room temperature, and alkylated with 55 mM chloroacetamide. After reducing the urea concentration to 1–2 M, proteins were digested with trypsin at 37 °C for 16 h. Subsequently, eluted peptides were desalted using SepPak tC18 µElution plates (Waters), freeze-dried by vacuum centrifugation, and stored at −20 °C. Proteins were filtered by potential contaminants, reversed hits and proteins identified only by site. Residual binding of proteins was calculated from LFQ intensities as the ratio between drug doses and vehicle. […] Only kinases quantified with at least 4 unique peptides in the vehicle experiment were considered. Potential targets were further curated through manual inspection of dose-dependent reduction in MS/MS and unique peptide counts.
Chain of PIK3C3 ; Q8NEB9 (Q8NEB9 whole entry): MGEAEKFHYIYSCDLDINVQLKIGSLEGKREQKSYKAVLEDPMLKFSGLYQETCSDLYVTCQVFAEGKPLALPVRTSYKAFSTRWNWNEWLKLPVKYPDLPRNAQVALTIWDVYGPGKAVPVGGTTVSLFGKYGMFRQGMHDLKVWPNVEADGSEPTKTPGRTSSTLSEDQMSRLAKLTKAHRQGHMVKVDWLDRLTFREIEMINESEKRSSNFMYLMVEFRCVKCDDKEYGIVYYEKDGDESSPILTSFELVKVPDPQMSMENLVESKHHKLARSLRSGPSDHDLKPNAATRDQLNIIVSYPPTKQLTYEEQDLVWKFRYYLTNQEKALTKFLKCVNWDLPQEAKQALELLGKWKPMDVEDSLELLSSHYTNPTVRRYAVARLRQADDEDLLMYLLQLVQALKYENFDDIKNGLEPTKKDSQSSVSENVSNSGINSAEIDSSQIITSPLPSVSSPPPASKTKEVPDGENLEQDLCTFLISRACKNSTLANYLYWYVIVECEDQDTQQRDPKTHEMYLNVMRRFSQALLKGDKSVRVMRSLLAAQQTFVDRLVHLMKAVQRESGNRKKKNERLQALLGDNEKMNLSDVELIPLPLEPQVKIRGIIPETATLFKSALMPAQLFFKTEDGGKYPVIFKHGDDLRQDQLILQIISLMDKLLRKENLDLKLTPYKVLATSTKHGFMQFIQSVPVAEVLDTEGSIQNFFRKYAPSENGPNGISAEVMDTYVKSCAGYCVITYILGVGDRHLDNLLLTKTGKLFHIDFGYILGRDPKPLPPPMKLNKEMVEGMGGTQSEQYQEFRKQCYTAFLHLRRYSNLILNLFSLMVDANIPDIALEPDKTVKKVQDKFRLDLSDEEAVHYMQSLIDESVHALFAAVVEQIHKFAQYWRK

Another test addresses STK3 ; Q13188;Q13188-2 (Homo sapiens, UniProt Q13188). Put plainly: biochemical. The arrangement: species or system AsPC-1; Kinobeads competition pulldown in AsPC-1 lysate with LC-MS/MS label-free quantification; apparent Kd. How it is done: as §1
For the next test, the system named is MAP3K5. Details: method as in Reinecke et al. (2023). The settings on record: MAP3K5, 5 cell line mix lysate, Kinobeads ε, ref Reinecke et al. (2023), cited from earlier work.
The target in test [1] is CLK1 ; P49759-3;P49759;P49759-2 (Homo sapiens, UniProt P49759). Put plainly: biochemical. The arrangement: species or system AsPC-1; Kinobeads competition pulldown in AsPC-1 lysate with LC-MS/MS label-free quantification; apparent Kd. As for the experimental part:
as §1

Test [2] deals with CDC42BPA ; Q5VT25-5;Q5VT25-4;Q5VT25;Q5VT25-2;Q5VT25-6;Q5VT25-3 (Homo sapiens, UniProt Q5VT25). The test can be described thus: biochemical. The arrangement: species or system AsPC-1; Kinobeads competition pulldown in AsPC-1 lysate with LC-MS/MS label-free quantification; apparent Kd. How it is done:
as §1

A further test addresses CLK2 ; P49760-3;P49760 (Homo sapiens, UniProt P49760). The test can be described thus: biochemical. Details: species or system AsPC-1; Kinobeads competition pulldown in AsPC-1 lysate with LC-MS/MS label-free quantification; apparent Kd. How it is done:
as §1

Test [3] has as its target CDK10 ; Q15131;Q15131-5;Q15131-2;Q15131-6;Q15131-4;Q15131-3;Q15131-7 (Homo sapiens, UniProt Q15131). The test can be described thus: biochemical. Details: species or system AsPC-1; Kinobeads competition pulldown in AsPC-1 lysate with LC-MS/MS label-free quantification; apparent Kd. How it is done:
as §1

For test [4], the system named is protein expression in AsPC-1 cells. Put plainly: Time-dependent protein expression analysis (1 µM GEM or 1 µM ATRi, 15 min-24 h). The format is cell-based, human. Conditions: GEM. As for the experimental part:
Cell culture medium was replaced 24 h after seeding. […] For time point 0, AsPC-1 cells were treated with a vehicle and lysed immediately. The final DMSO concentration in all experiments was 0.2%.
LC-MS/MS measurement of non-enriched, TMT-labeled peptides from temporal drug perturbation was carried out on an Orbitrap Fusion Lumos Tribrid instrument (Thermo Scientific) coupled to a micro-flow LC system built by combining a modified Vanquish pump and the autosampler of the Dionex UltiMate 3000 nano HPLC System (Thermo Scientific). Dried peptides were reconstituted in 0.1% formic acid and loaded directly onto an Acclaim PepMap 100 C18 column (2 μm particle size, 1 mm × 150 mm, Thermo Scientific) heated at 55 °C. […] Flow rates of sheath, aux, and sweep gas were kept at 32, 5, and 0, respectively. […] The cycle time between MS1 scans was 1.2 s, with a dynamic exclusion duration of 50 s.
Peptide and protein identification and quantification of time-series raw data was performed with MaxQuant (v2.1.3.0) using the same sequence information as above, with N-terminal acetylation and oxidized methionine as variable modifications and cysteine carbamidomethylation as fixed modification. All other search parameters were set as default. The resulting proteingroups.txt file was filtered to remove potential contaminants and reversed hits. Corrected TMT reporter channel intensities were median-centered, and ratios were calculated between treatments and their respective time-point controls (Appendix Table S6). Proteins were considered conversely regulated if absolute log2 fold change > 2 by at least one drug and oppositely affected by both drugs (up/down) at 24 h.

The subject of another test is PSN-1 cells. The test can be described thus: Drug combination viability screen (ATPlite, 72 h).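 For AUC: area under vehicle-normalized viability curve scaled 0 to 100 percent.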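 For Curve bottom: fraction of vehicle control viability from four-parameter log-logistic fit.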 Conditions: for EC50: Homo sapiens, PSN1. In kind it is cell-based, human.

Read-outs that look alike come from different tables or passages of the source.

Chain of CLK1 ; P49759-3;P49759;P49759-2 (P49759 whole entry): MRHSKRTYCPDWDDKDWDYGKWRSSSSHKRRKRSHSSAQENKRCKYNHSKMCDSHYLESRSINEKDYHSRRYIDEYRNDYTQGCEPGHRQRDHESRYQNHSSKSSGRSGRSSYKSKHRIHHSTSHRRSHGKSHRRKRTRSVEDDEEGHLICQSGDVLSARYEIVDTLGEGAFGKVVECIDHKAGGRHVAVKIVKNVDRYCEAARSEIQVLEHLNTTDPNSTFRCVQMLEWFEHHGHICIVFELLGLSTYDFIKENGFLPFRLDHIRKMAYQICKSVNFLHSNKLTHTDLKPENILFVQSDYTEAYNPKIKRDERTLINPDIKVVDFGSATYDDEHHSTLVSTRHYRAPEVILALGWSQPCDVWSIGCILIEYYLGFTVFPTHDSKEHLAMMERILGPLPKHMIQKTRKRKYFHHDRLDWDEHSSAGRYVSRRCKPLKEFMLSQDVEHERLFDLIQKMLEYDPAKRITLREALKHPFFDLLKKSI
Chain of CDK10 ; Q15131;Q15131-5;Q15131-2;Q15131-6;Q15131-4;Q15131-3;Q15131-7 (Q15131 whole entry): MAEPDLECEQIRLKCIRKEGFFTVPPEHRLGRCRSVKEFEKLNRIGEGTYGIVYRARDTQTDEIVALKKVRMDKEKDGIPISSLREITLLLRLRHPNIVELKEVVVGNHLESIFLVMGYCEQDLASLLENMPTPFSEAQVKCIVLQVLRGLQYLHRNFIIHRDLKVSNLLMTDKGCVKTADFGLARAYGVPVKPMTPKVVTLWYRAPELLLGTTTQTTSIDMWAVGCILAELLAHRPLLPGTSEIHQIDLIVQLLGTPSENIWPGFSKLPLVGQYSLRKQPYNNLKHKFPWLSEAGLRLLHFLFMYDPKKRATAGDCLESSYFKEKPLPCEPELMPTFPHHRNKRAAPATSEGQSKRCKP
Chain of CLK2 ; P49760-3;P49760 (P49760 whole entry): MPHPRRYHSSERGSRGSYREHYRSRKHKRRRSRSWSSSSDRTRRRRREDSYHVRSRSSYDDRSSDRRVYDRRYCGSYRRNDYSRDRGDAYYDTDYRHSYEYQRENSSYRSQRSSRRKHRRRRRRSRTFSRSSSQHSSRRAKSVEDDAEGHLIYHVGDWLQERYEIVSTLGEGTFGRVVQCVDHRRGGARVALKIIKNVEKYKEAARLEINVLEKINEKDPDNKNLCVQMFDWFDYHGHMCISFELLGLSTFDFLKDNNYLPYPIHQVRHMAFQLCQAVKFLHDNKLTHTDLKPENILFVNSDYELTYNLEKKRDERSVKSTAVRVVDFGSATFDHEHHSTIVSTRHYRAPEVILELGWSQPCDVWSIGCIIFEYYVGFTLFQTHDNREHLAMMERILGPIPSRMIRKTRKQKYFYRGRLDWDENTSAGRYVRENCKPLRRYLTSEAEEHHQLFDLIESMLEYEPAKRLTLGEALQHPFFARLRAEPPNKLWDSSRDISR
Chain of CDC42BPA ; Q5VT25-5;Q5VT25-4;Q5VT25;Q5VT25-2;Q5VT25-6;Q5VT25-3 (Q5VT25 whole entry): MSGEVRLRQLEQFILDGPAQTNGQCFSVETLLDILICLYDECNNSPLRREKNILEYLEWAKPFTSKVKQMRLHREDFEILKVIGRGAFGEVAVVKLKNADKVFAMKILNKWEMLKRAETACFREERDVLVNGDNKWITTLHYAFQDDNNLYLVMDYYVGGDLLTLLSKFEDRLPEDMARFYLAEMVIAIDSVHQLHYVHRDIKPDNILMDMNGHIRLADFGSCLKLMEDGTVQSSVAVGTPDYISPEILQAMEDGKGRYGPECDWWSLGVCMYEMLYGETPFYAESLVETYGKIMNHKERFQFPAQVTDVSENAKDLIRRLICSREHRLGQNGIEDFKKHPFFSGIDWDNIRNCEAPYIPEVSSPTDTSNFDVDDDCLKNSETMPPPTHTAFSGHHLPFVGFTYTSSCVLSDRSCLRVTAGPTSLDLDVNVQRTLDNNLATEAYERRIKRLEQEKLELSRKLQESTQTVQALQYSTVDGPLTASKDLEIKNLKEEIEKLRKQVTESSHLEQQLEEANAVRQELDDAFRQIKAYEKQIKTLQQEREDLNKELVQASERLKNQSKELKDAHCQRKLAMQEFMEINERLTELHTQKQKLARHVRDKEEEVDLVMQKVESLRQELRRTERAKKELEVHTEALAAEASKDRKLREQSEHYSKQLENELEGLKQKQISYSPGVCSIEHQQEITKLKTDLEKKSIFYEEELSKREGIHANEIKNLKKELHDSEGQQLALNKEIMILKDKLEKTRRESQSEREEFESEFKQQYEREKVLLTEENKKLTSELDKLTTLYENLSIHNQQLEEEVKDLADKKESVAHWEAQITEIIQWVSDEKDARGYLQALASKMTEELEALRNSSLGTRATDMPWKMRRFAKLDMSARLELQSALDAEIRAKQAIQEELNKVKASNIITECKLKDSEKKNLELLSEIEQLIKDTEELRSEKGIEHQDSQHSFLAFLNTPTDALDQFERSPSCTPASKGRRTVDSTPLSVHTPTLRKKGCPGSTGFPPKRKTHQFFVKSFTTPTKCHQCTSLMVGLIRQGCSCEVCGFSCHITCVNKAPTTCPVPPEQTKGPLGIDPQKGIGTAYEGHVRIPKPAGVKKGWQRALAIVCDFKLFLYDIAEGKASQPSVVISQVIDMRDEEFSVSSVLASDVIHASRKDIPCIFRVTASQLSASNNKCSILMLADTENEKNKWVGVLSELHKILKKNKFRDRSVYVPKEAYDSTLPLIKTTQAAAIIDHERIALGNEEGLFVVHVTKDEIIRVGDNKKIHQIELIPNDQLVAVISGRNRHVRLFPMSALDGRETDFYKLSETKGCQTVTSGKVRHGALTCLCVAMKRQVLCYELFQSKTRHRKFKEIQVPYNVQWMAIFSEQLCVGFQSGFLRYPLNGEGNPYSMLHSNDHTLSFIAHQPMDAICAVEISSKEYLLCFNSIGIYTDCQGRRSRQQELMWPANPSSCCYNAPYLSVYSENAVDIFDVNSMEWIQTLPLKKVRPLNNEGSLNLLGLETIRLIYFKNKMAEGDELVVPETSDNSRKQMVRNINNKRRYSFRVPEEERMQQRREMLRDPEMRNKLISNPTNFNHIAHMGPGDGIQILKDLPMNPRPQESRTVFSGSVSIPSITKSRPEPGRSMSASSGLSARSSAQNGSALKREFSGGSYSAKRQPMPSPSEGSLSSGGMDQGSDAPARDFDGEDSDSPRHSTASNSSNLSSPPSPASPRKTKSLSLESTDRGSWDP
Chain of STK3 ; Q13188;Q13188-2 (Q13188 whole entry): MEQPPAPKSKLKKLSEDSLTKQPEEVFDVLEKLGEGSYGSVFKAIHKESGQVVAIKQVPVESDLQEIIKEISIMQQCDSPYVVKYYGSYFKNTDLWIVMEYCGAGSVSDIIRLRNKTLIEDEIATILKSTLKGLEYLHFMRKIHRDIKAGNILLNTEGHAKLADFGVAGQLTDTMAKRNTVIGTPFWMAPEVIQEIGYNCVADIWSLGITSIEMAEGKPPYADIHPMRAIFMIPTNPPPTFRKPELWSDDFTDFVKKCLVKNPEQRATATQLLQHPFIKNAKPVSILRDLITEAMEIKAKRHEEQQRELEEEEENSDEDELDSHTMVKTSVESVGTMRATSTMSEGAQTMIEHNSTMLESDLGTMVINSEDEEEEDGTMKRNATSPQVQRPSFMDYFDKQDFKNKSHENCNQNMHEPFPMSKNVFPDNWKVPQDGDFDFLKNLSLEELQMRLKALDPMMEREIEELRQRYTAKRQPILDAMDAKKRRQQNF

In the case of `CNCc1ccc(-c2cc(-c3nc(-c4ccc(S(=O)(=O)C(C)C)cc4)cnc3N)on2)cc1` [Berzosertib], the values for the Kd on PIK3C3 ; Q8NEB9 and at STK3 ; Q13188;Q13188-2 were 9.2 nM and 70.2 nM, respectively.
Regarding `COc1cc(N2CCC(N3CCN(C)CC3)CC2)ccc1Nc1ncc(Cl)c(Nc2ccccc2P(C)(C)=O)n1` [Brigatinib], in the test on MAP3K5, the EC50 was 970 nM and the pKDapp is 6.11. Moreover, the Kd at MAP3K5 (read-out: KDapp) is 776 nM.
With `Nc1nn2cc(F)cnc2c1C(=O)Nc1cncc(F)c1N1CCC(C(=O)N2CCN(C3COC3)CC2)CC1` [Gartisertib], the Kd in test [1] is 70.9 nM; in [2] it was 15.4 nM; on CLK2 ; P49760-3;P49760 it was 303 nM; in [3] it was 153 nM.
In the case of `Nc1ccn([C@@H]2O[C@H](CO)[C@@H](O)C2(F)F)c(=O)n1` [GEM, Gemcitabine], in test [4] (protein CLN6), the “Regulation_24h, CLN6 protein expression” value was “up”. Also, in test [4] (protein E2F6), the “Regulation_24h, E2F6 protein expression” value is “up”. Also, in test [4] (protein HELZ2), the “Regulation_24h, HELZ2 protein expression” value is on record as “up”. In addition, the “Regulation_24h, PRKACA protein expression” value in test [4] (protein PRKACA) is “up”. In [4] (protein RASSF10), the “Regulation_24h, RASSF10 protein expression” value is “up”. Besides, the EC50 in the test on PSN-1 cells (read-out: EC50) is 3.44 nM; in the test on PSN-1 cells (read-out: pEC50 (converted)) it was 3.47 nM. The Reponse in the test with PSN-1 cells (PSN-1, R1, 13.72 nM) is reported as 1225440; with PSN-1 cells (PSN-1, R1, 41.15 nM), 969400; in the test on PSN-1 cells (PSN-1, R1, 123.46 nM) it was 806840; with PSN-1 cells (PSN-1, R1, 370.37 nM) it was 818640; in the test with PSN-1 cells (PSN-1, R1, 1111.11 nM), 786440; in the test on PSN-1 cells (PSN-1, R1, 3333.33 nM) it was 785720. In addition, the Reponse with PSN-1 cells (PSN-1, R1, 10000 nM) is 723120; with PSN-1 cells (PSN-1, replicate R2, dose 13.72 nM, raw signal) it was 1542400; in the test with PSN-1 cells (PSN-1, replicate R2, dose 41.15 nM, raw signal), 1210080; in the test on PSN-1 cells (PSN-1, replicate R2, dose 123.46 nM, raw signal) it was 1089000; in the test on PSN-1 cells (PSN-1, replicate R2, dose 370.37 nM, raw signal) it was 1103640; with PSN-1 cells (PSN-1, replicate R2, dose 1111.11 nM, raw signal), 1004960. In addition, the Reponse in the test with PSN-1 cells (PSN-1, replicate R2, dose 3333.33 nM, raw signal) stood at 1071400; in the test on PSN-1 cells (PSN-1, replicate R2, dose 10000 nM, raw signal), 1052080. Besides, in the test on PSN-1 cells (PSN-1, GEM curve fit), the AUC was determined as 35.4%. The Curve bottom in the test with PSN-1 cells (PSN-1, GEM curve fit) is listed as 0.11. Also, the Curve effect size in the test with PSN-1 cells (PSN-1, GEM curve fit) turned out to be 0.89. For the same molecule, the Curve slope in the test with PSN-1 cells (PSN-1, GEM curve fit) was 2.16. The Curve top in the test with PSN-1 cells (PSN-1, GEM curve fit) amounted to 1.03.
